{
  "source": "ChEMBL document CHEMBL1201862",
  "about": "“PubChem BioAssay data set” (2004)",
  "experiment_in_all_cases": "growth of human tumour cells (NCI), 48 h",
  "key": {"[1]": {"tested_on": "MDA-MB-435"}, "[2]": {"tested_on": "T47D"}, "[3]": {"tested_on": "SK-OV-3"}, "[4]": {"tested_on": "SF-268"}, "[5]": {"tested_on": "UACC-62"}, "[6]": {"tested_on": "RPMI-8226"}, "[7]": {"tested_on": "786-0"}, "[8]": {"tested_on": "M14"}, "[9]": {"tested_on": "NCI-H522"}, "[10]": {"tested_on": "LOX IMVI"}, "[11]": {"tested_on": "RXF 393"}, "[12]": {"tested_on": "OVCAR-3"}, "[13]": {"tested_on": "NCI-H460"}, "[14]": {"tested_on": "SF-295"}, "[15]": {"tested_on": "ACHN"}, "[16]": {"tested_on": "SNB-19"}, "[17]": {"tested_on": "CAKI-1"}, "[18]": {"tested_on": "SK-MEL-2"}, "[19]": {"tested_on": "MDA-MB-231"}, "[20]": {"tested_on": "SK-MEL-28"}},
  "note": "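Growth conditions: 96-well plates. Treatment: test compound, 48 hours, 5 concentrations. Analysis: linear interpolation between bracketing concentrations; unreached endpoints set to highest concentration. The concentration for 50% growth inhibition is given as GI50.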 Active and inactive are the calls of the source. Rule as the data show it: active = GI50 up to about 1.1 µM and inactive = higher.",
  "data": [
    {"smiles": "CCOC(=O)c1cc(-c2ccc(OC)c(OC)c2)c[nH]1", "values": [
      {"measurement": "GI50", "setting": "[1]", "value": "> 10 µM (inactive)"},
      {"measurement": "GI50", "setting": "[2]", "value": "> 10 µM (inactive)"},
      {"measurement": "GI50", "setting": "[3]", "value": "> 10 µM (inactive)"},
      {"measurement": "GI50", "setting": "[4]", "value": "> 10 µM (inactive)"},
      {"measurement": "GI50", "setting": "[5]", "value": "> 10 µM (inactive)"},
      {"measurement": "GI50", "setting": "[6]", "value": "> 10 µM (inactive)"},
      {"measurement": "GI50", "setting": "[7]", "value": "> 10 µM (inactive)"},
      {"measurement": "GI50", "setting": "[8]", "value": "> 10 µM (inactive)"},
      {"measurement": "GI50", "setting": "[9]", "value": "> 10 µM (inactive)"},
      {"measurement": "GI50", "setting": "[10]", "value": "> 10 µM (inactive)"},
      {"measurement": "GI50", "setting": "[11]", "value": "> 10 µM (inactive)"},
      {"measurement": "GI50", "setting": "[12]", "value": "> 10 µM (inactive)"},
      {"measurement": "GI50", "setting": "[13]", "value": "> 10 µM (inactive)"},
      {"measurement": "GI50", "setting": "[14]", "value": "> 10 µM (inactive)"},
      {"measurement": "GI50", "setting": "[15]", "value": "> 10 µM (inactive)"},
      {"measurement": "GI50", "setting": "[16]", "value": "> 10 µM (inactive)"},
      {"measurement": "GI50", "setting": "[17]", "value": "> 10 µM (inactive)"},
      {"measurement": "GI50", "setting": "[18]", "value": "> 10 µM (inactive)"},
      {"measurement": "GI50", "setting": "[19]", "value": "> 10 µM (inactive)"},
      {"measurement": "GI50", "setting": "[20]", "value": "> 10 µM (inactive)"}
    ]},
    {"smiles": "O=c1c2sc3nc(NCCN4CCCCC4)ncc3c2ncn1-c1ccccc1", "values": [
      {"measurement": "GI50", "setting": "[1]", "value": "72.6 µM (inactive)"},
      {"measurement": "GI50", "setting": "[2]", "value": "35.8 µM (inactive)"},
      {"measurement": "GI50", "setting": "[3]", "value": "> 100 µM (inactive)"},
      {"measurement": "GI50", "setting": "[4]", "value": "60 µM (inactive)"},
      {"measurement": "GI50", "setting": "[5]", "value": "82.2 µM (inactive)"},
      {"measurement": "GI50", "setting": "[6]", "value": "80.4 µM (inactive)"},
      {"measurement": "GI50", "setting": "[7]", "value": "80.7 µM (inactive)"},
      {"measurement": "GI50", "setting": "[8]", "value": "19.6 µM (inactive)"},
      {"measurement": "GI50", "setting": "[9]", "value": "41 µM (inactive)"},
      {"measurement": "GI50", "setting": "[10]", "value": "17.3 µM (inactive)"},
      {"measurement": "GI50", "setting": "[11]", "value": "20.6 µM (inactive)"},
      {"measurement": "GI50", "setting": "[12]", "value": "> 100 µM (inactive)"},
      {"measurement": "GI50", "setting": "[13]", "value": "55.6 µM (inactive)"},
      {"measurement": "GI50", "setting": "[14]", "value": "61.8 µM (inactive)"},
      {"measurement": "GI50", "setting": "[15]", "value": "42 µM (inactive)"},
      {"measurement": "GI50", "setting": "[16]", "value": "67.9 µM (inactive)"},
      {"measurement": "GI50", "setting": "[17]", "value": "33 µM (inactive)"},
      {"measurement": "GI50", "setting": "[18]", "value": "34.2 µM (inactive)"},
      {"measurement": "GI50", "setting": "[19]", "value": "> 100 µM (inactive)"},
      {"measurement": "GI50", "setting": "[20]", "value": "55.2 µM (inactive)"}
    ]},
    {"smiles": "CC1OC(OC2C(O)COC(OC3C(C)OC(OC4C(OC(=O)[C@]56CCC(C)(C)C[C@@H]5C5=CCC7[C@@]8(C)C[C@H](O)[C@H](OC9OC(CO)C(O)C(O)C9O)[C@@](C)(CO)[C@@H]8CC[C@@]7(C)[C@]5(C)CC6)OCC(O)C4O)C(O)C3OC3OCC(O)C(O)C3O)C2O)C(O)C(O)C1O", "note": "(stereo not given in full)", "values": [
      {"measurement": "GI50", "setting": "[1]", "value": "21.8 µM (inactive)"},
      {"measurement": "GI50", "setting": "[2]", "value": "20.2 µM (inactive)"},
      {"measurement": "GI50", "setting": "[3]", "value": "18.6 µM (inactive)"},
      {"measurement": "GI50", "setting": "[4]", "value": "29.2 µM (inactive)"},
      {"measurement": "GI50", "setting": "[5]", "value": "22.3 µM (inactive)"},
      {"measurement": "GI50", "setting": "[6]", "value": "39 µM (inactive)"},
      {"measurement": "GI50", "setting": "[7]", "value": "15.5 µM (inactive)"},
      {"measurement": "GI50", "setting": "[8]", "value": "11 µM (inactive)"},
      {"measurement": "GI50", "setting": "[9]", "value": "44.9 µM (inactive)"},
      {"measurement": "GI50", "setting": "[10]", "value": "18.9 µM (inactive)"},
      {"measurement": "GI50", "setting": "[11]", "value": "15.9 µM (inactive)"},
      {"measurement": "GI50", "setting": "[12]", "value": "17.8 µM (inactive)"},
      {"measurement": "GI50", "setting": "[13]", "value": "20.1 µM (inactive)"},
      {"measurement": "GI50", "setting": "[14]", "value": "20.7 µM (inactive)"},
      {"measurement": "GI50", "setting": "[15]", "value": "17.8 µM (inactive)"},
      {"measurement": "GI50", "setting": "[16]", "value": "19.1 µM (inactive)"},
      {"measurement": "GI50", "setting": "[17]", "value": "10.7 µM (inactive)"},
      {"measurement": "GI50", "setting": "[18]", "value": "21.4 µM (inactive)"},
      {"measurement": "GI50", "setting": "[19]", "value": "14.7 µM (inactive)"},
      {"measurement": "GI50", "setting": "[20]", "value": "11.2 µM (inactive)"}
    ]},
    {"smiles": "Cc1cc2c(s1)C(=O)c1sccc1C2=O", "values": [
      {"measurement": "GI50", "setting": "[1]", "value": "0.177 µM (active)"},
      {"measurement": "GI50", "setting": "[2]", "value": "1.63 µM (inactive)"},
      {"measurement": "GI50", "setting": "[3]", "value": "2.06 µM (inactive)"},
      {"measurement": "GI50", "setting": "[4]", "value": "0.762 µM (active)"},
      {"measurement": "GI50", "setting": "[5]", "value": "0.24 µM (active)"},
      {"measurement": "GI50", "setting": "[6]", "value": "1.88 µM (inactive)"},
      {"measurement": "GI50", "setting": "[7]", "value": "1.83 µM (inactive)"},
      {"measurement": "GI50", "setting": "[8]", "value": "0.176 µM (active)"},
      {"measurement": "GI50", "setting": "[9]", "value": "0.552 µM (active)"},
      {"measurement": "GI50", "setting": "[10]", "value": "0.152 µM (active)"},
      {"measurement": "GI50", "setting": "[11]", "value": "1.17 µM (inactive)"},
      {"measurement": "GI50", "setting": "[12]", "value": "0.83 µM (active)"},
      {"measurement": "GI50", "setting": "[13]", "value": "1.72 µM (inactive)"},
      {"measurement": "GI50", "setting": "[14]", "value": "0.344 µM (active)"},
      {"measurement": "GI50", "setting": "[15]", "value": "1.05 µM (active)"},
      {"measurement": "GI50", "setting": "[16]", "value": "1.66 µM (inactive)"},
      {"measurement": "GI50", "setting": "[17]", "value": "1.75 µM (inactive)"},
      {"measurement": "GI50", "setting": "[18]", "value": "0.385 µM (active)"},
      {"measurement": "GI50", "setting": "[19]", "value": "1.07 µM (active)"},
      {"measurement": "GI50", "setting": "[20]", "value": "0.2 µM (active)"}
    ]},
    {"smiles": "Cc1[nH]n(-c2ncc(C#N)c(=O)[nH]2)c(=O)c1CCO", "values": [
      {"measurement": "GI50", "setting": "[1]", "value": "> 100 µM (inactive)"},
      {"measurement": "GI50", "setting": "[2]", "value": "> 100 µM (inactive)"},
      {"measurement": "GI50", "setting": "[3]", "value": "> 100 µM (inactive)"},
      {"measurement": "GI50", "setting": "[4]", "value": "> 100 µM (inactive)"},
      {"measurement": "GI50", "setting": "[5]", "value": "> 100 µM (inactive)"},
      {"measurement": "GI50", "setting": "[6]", "value": "> 100 µM (inactive)"},
      {"measurement": "GI50", "setting": "[7]", "value": "> 100 µM (inactive)"},
      {"measurement": "GI50", "setting": "[8]", "value": "> 100 µM (inactive)"},
      {"measurement": "GI50", "setting": "[9]", "value": "> 100 µM (inactive)"},
      {"measurement": "GI50", "setting": "[10]", "value": "> 100 µM (inactive)"},
      {"measurement": "GI50", "setting": "[11]", "value": "> 100 µM (inactive)"},
      {"measurement": "GI50", "setting": "[12]", "value": "> 100 µM (inactive)"},
      {"measurement": "GI50", "setting": "[13]", "value": "> 100 µM (inactive)"},
      {"measurement": "GI50", "setting": "[14]", "value": "> 100 µM (inactive)"},
      {"measurement": "GI50", "setting": "[15]", "value": "> 100 µM (inactive)"},
      {"measurement": "GI50", "setting": "[16]", "value": "> 100 µM (inactive)"},
      {"measurement": "GI50", "setting": "[17]", "value": "> 100 µM (inactive)"},
      {"measurement": "GI50", "setting": "[18]", "value": "> 100 µM (inactive)"},
      {"measurement": "GI50", "setting": "[19]", "value": "> 100 µM (inactive)"},
      {"measurement": "GI50", "setting": "[20]", "value": "> 100 µM (inactive)"}
    ]}
  ]
}
